Measured values as given in patent US11331318B2, “Arterial oxygen saturation degree improver” (FURUKAWA RESEARCH OFFICE CO., LTD., priority 2017, dated 2022).

Columns and labels:
male ddY mice = test: Limit swimming time in mice (reference example 3); type: in vivo, mouse
Procedure: The endurance-enhancing effect was verified using orotic acid as a test substance. Seven-week old male ddY mice were purchased from Japan SLC, Inc. and were each acclimatized for 7 days and then forced to swim with a weight on the tail. When a mouse could not come up to the water surface and stayed under the surface of the water for 5 seconds, the time thereof was measured as the limit swimming time. The mice were divided into groups, such that there was no difference in limit swimming time between the groups, as follows: control group (CTL group, n=10), orotic acid 250 mg/kg administration group (OA 250 mg/kg group, n=10), and orotic acid 500 mg/kg administration group (OA 500 mg/kg group, n=10). The mice in each group were bred using roughage (CE-2), and the mice in OA 250 mg/kg group and OA 500 mg/kg group were orally administered with 250 mg/kg of orotic acid and 500 mg/kg of orotic acid, respectively, five times a week. After the grouping, the limit swimming time in each group was measured once a week while being bred for 3 weeks.

[1] = tested on: person suspected of having sleep apnea syndrome (SAS); test: SpO2 at apnea or hypopnea state in a person suspected of having sleep apnea syndrome; type: in vivo, human; conditions: one tablet of orotic acid-containing throat candy at bedtime, oral absorption
Source text: A person suspected of having sleep apnea syndrome (SAS) ingested one tablet of the placebo throat candy manufactured in Example 3 at bedtime, and the maximum time of sleep apnea (a state in which breathing stops for 10 seconds of more) or hypopnea (a state in which ventilation by breathing falls to 50% or less for 10 seconds or more), which are detected with testing equipment for sleep apnea syndrome lent from a medical corporation Koshikai Ginza Yasue Clinic, and the SpO2 level at that time was measured two nights by the method in Example 1 (these levels are written by numerical numbers in the diagnostic results analyzed by the clinic software). The women then ingested one tablet of the orotic acid-containing throat candy manufactured in Example 3 at bedtime, and the maximum time of sleep apnea or hypopnea state and the SpO2 level at that time was measured by the same method as above two nights. In FIG. 6, the results in ingestion of one tablet of placebo throat candy are shown by round-shaped plots, and the results in ingestion of one tablet of orotic acid-containing throat candy are shown by diamond-shaped plots.

ddY male mice [2] = test: Oxygen consumption during non-exercise in mice (reference example 1); type: in vivo, mouse; conditions: 5 times a week for 4 weeks
Procedure: In order to verify whether orotic acid has an effect of decreasing the oxygen consumption during non-exercise or not, the following test was performed. Thirty-two ddY male mice (6-week old) bred in a thermostatic animal chamber of 24±2° C. for one week or more under a light-dark cycle of 12 hours (lighting from 8:00 to 20:00) were prepared. These mice were divided into two groups. Each mouse in one group (control group: CTL group) was administered with 0.5 mass % carboxymethyl cellulose solution (CMC solution) in an amount of 10 mL per 1 kg of mouse body weight. Each mouse in the other group (orotic acid administration group: OA group) was administered with orotic acid (50 mg/mL) suspended in 0.5 mass % CMC solution in an amount of 10 mL per 1 kg of mouse body weight. These administrations were performed 5 times a week for successive 4 weeks (20 times in total) for each mouse. Each mouse was transferred to a metabolism measurement chamber at 19:00 on the day of last administration to start fasting, and the oxygen consumption (VO2 [mL/min]) and carbon dioxide production volume (VCO2 [mL/min]) during the dark period from 20:00 to 8:00 on the following day were measured. […] In addition, the respiratory quotient (RER) of each mouse was calculated as a value obtained by dividing the carbon dioxide production volume by the oxygen consumption.

[3] = tested on: human subjects in normobaric hypoxic room (oxygen concentration 12.4 to 12.7%); test: SpO2 and heart rate in a normobaric hypoxic room before and after administration of orotic acid; type: in vivo
Procedure: A person (subject A) entered a normobaric hypoxic room (oxygen concentration: 12.4 to 12.7%, equivalent to that at an altitude of about 4000 m, 23° C.) of Miura Dolphins and was then administered with 400 mg of orotic acid by repeating twice a method (sublingual administration) in which a mixture (400 mg) of free form orotic acid (manufactured by Kyowa Hakko Bio Co., Ltd., 200 mg) and L-carnitine (manufactured by Lonza Japan Ltd., 200 mg) wrapped in wafer paper was placed under the tongue and allowed to stay in the mouth for at least 30 seconds, and the SpO2 and heart rate were measured using a pulse oximeter PULSOX-300i (manufactured by Konica Minolta, Inc.). Incidentally, in this example, carnitine was used for enhancing the solubility of orotic acid in water (absorbability into oral mucosa (see Japanese unexamined Patent Application Publication No. 2015-43743). Subject A was required not to consciously change their breathing after entering the room. Three subjects ([subject A: the same subject as that Example 1], [subject B], and [subject C]) were subjected to a test according to the method described in [Test method 1] above. Subject A was subjected to examination of swallowing (oral administration) two tablets each containing 200 mg of free form orotic acid monohydrate (manufactured by Kyowa Hakko Bio Co., Ltd.) (400 mg of orotic acid in total) for comparison with sublingual administration. In this test, the oxygen concentration in the room was stable within a range of 12.4% to 12.7% throughout the test period.

[4] = tested on: healthy women performing bike exercise; test: Change in plasma uric acid level after bike exercise (uricase-POD method); type: in vivo, human; conditions: non-ingestion group increase of 0.2 mg/dL
Procedure: Six 22-year-old healthy women were divided into three groups of two. All the women were fasted for 24 hours (allowed only to drink water or tea), and two women of one group ingested one tablet of the orotic acid-containing throat candy (OA mouth-dissolving tablet), two women of another group ingested one tablet of the free form orotic acid monohydrate-containing tablets manufactured in Example 2 (OA tablet), and two women of the remaining group ingested one tablet of the placebo throat candy (non-ingestion), and the women performed bike exercise (exercise intensity: […]) for 30 minutes. Changes in energy consumption and changes in plasma uric acid level were measured at 2 hours, 3 hours, and 4 hours after completion of the exercise by the following measuring method. The uric acid concentrations (mg/dL) at immediately after completion of exercise and at 4 hours after completion of exercise were determined by allowing peroxidase (POD) to act on hydrogen peroxide (H2O2), generated by oxidative decomposition of uric acid in a sample by the action of uricase, in the presence of 4-aminoantipyrine (4-AA) and a color former for oxidative condensation to generate a quinone dye (uricase-POD method). The resulting quinone dye is colorimetrically measured to calculate the change in plasma uric acid level.

[5] = tested on: healthy women performing bike exercise; test: Change in energy consumption after bike exercise; type: in vivo, human; conditions: one tablet (200 mg) before exercise
Procedure: Six 22-year-old healthy women were divided into three groups of two. All the women were fasted for 24 hours (allowed only to drink water or tea), and two women of one group ingested one tablet of the orotic acid-containing throat candy (OA mouth-dissolving tablet), two women of another group ingested one tablet of the free form orotic acid monohydrate-containing tablets manufactured in Example 2 (OA tablet), and two women of the remaining group ingested one tablet of the placebo throat candy (non-ingestion), and the women performed bike exercise (exercise intensity: […]) for 30 minutes. Changes in energy consumption and changes in plasma uric acid level were measured at 2 hours, 3 hours, and 4 hours after completion of the exercise by the following measuring method. Exhalation was analyzed at immediately after completion of exercise and at 2 hours, 3 hours, and 4 hours after completion of exercise with AERO MONITOR AE 300S manufactured by Minato Medical Science Co., Ltd. Oxygen uptake volume and carbon dioxide production volume were measured, and the energy consumption (kcal/day) was determined by the following expression (1) to calculate the change in energy consumption. Energy consumption (kcal/day)=(3.9×oxygen uptake volume)+(1.1×carbon dioxide production volume) (1) Method for Measuring Change in Plasma Uric Acid Level

ddY male mice [6] = test: Oxygen consumption during forced treadmill exercise in mice (reference example 2); type: in vivo, mouse; conditions: 5 times a week for 3 weeks
Procedure: In order to verify whether orotic acid has an effect of decreasing the oxygen consumption during exercise or not, the following test was performed. Twenty-four ddY male mice (6-week old) bred in a thermostatic animal chamber of 24±2° C. for one week or more under a light-dark cycle of 12 hours (lighting from 8:00 to 20:00) were prepared. These mice were divided into two groups. Each mouse in one group, CTL group, was administered with 0.5 mass % CMC solution in an amount of 10 mL per 1 kg of mouse body weight. Each mouse in the other group, OA group, was administered with 50 mg/mL of orotic acid suspended in 0.5 mass % CMC solution in an amount of 10 mL per 1 kg of mouse body weight. These administrations were performed 5 times a week for successive 3 weeks (15 times in total) for each mouse. Fasting of each mouse was started at 17:00 on the day of last administration. The mice were subjected to forced exercise using a mouse treadmill from 10:00 on the following day, and the oxygen consumption and the carbon dioxide production volume during exercise were measured. Incidentally, the forced exercise was performed for 30 minutes in total at a speed of 15 m/min for first 5 minutes, at a speed of 20 m/min for the following 5 minutes, and then at a speed of 25 m/min for 20 minutes. […] In addition, the respiratory quotient of each mouse was calculated as a value obtained by dividing the carbon dioxide production volume by the oxygen consumption.

O=C(O)c1cc(=O)[nH]c(=O)[nH]1 [orotic acid]
effect of oral administration on the day of administration or within one week (male ddY mice; experiments using mice, oral administration, at least three weeks needed for a significant difference): not observed | limit swimming time (male ddY mice; oral 250 mg/kg and 500 mg/kg, five times a week, 3 weeks): prolonged depending on the dose of orotic acid | SpO2 level at the same apnea time, compared with no orotic acid (placebo throat candy) [1]: higher than that when orotic acid was not ingested | respiratory quotient (RER) compared to control group (ddY male mice [2]): not a significant difference | carbon dioxide production volume (VCO2) compared to control group (ddY male mice [2]; dark period): significantly decreased | oxygen consumption (VO2) compared to control group (ddY male mice [2]; dark period, orotic acid 50 mg/mL suspension 10 mL/kg): significantly decreased | heart rate ([3]; subject A, 400 mg oral): did not have a considerable irregularity in heart rate | sense of discomfort felt to be caused by hypoxia ([3]; subject A, 400 mg oral): merely slightly improved | recovery of SpO2 level after oral administration ([3]; subject A, 400 mg oral (two swallowed tablets of free form orotic acid monohydrate), SpO2 decreased to 84%): hardly recovered | SpO2 level about 30 minutes after sublingual administration ([3]; subject A, 400 mg orotic acid sublingual (mixed with L-carnitine, in wafer paper), SpO2 83% to 84% before administration): 88% | SpO2 level stably maintained until leaving the room ([3]; subject A, 400 mg sublingual): about 88% | heart rate ([3]; subject A, 400 mg sublingual): no considerable irregularity in heart rate | sense of discomfort felt to be caused by hypoxia ([3]; subject A, 400 mg sublingual): disappeared soon after ingestion of orotic acid | time for which the increased SpO2 level was stably maintained ([3]; subject A, 400 mg sublingual, until leaving the room): at least 5 hours | heart rate before and after administration ([3]; subject B, 400 mg sublingual): hardly changed | symptoms such as light sleepiness and reduced concentration ([3]; subject B, 400 mg sublingual): cancelled | SpO2 level recovered after sublingual administration ([3]; subject B, 400 mg sublingual, SpO2 82% before, increased at about 30 minutes after administration): 86% | symptoms of altitude sickness, such as headache and bad feeling ([3]; subject C, 200 mg sublingual): disappeared | SpO2 level recovered after sublingual administration ([3]; subject C, 200 mg sublingual at 2 hours and 40 minutes after entering the room): higher than 80% | recovery of SpO2 level ([3]; subject C, 400 mg swallowed before dissolution of wafer paper (same as oral administration), SpO2 decreased to 70%): no recovery in the SpO2 level was observed | change of uric acid concentration between immediately after exercise and 4 hours after exercise (decrease) ([4]; orotic acid ingested by oral absorption as throat candy): 0.05 mg/dL | change of uric acid concentration between immediately after exercise and 4 hours after exercise (increase) ([4]; orotic acid ingested by oral administration): 0.1 mg/dL | decrease in energy consumption at 2, 3 and 4 hours after bike exercise compared to immediately after exercise ([5]; oral absorption as throat candy): remarkable compared to that when orotic acid was ingested by oral administration | energy consumption at 2, 3 and 4 hours after bike exercise compared to immediately after exercise ([5]; oral administration): decreased | carbon dioxide production volume (VCO2) compared to control group (ddY male mice [6]): significantly decreased | respiratory quotient (RER) compared to control group (ddY male mice [6]): not a significant difference | oxygen consumption (VO2) compared to control group (ddY male mice [6]; orotic acid 50 mg/mL suspension 10 mL/kg): significantly decreased
